# Measurements from the kinase profiling compilation of Christmann-Franck et al. (2016).
# What was measured:
# Assay in all cases: radiometric filter-binding kinase assay
# IRAK1 (human) = IRAK1 (human) (UniProt P51617)
# EPHB2 (human) = EPHB2 (human) (UniProt P29323)
# YES1 (human) = YES1 (human) (UniProt P07947)
# MAPK14 (human) = MAPK14 (human) (UniProt Q16539)
# PRKACA (human) = PRKACA (human) (UniProt P17612)
# MAPK15 (human) = MAPK15 (human) (UniProt Q8TD08)
# PAK4 (human) = PAK4 (human) (UniProt O96013)
# MARK1 (human) = MARK1 (human) (UniProt Q9P0L2)
# ROCK2 (rat) = conditions: accession and sequence are those of the human protein
# INSRR (human) = INSRR (human) (UniProt P14616)
# IKBKE (human) = IKBKE (human) (UniProt Q14164)
# [1] = test system: OXSR1 (human), O95747 [T185E]
# RPS6KA1 KD1 KD2 (human) = RPS6KA1 KD1 KD2 (human) (UniProt Q15418)
# STK33 (human) = STK33 (human) (UniProt Q9BYT3)
# MAPK10 (human) = MAPK10 (human) (UniProt P53779)
# BRSK2 (human) = BRSK2 (human) (UniProt Q8IWQ3)
# MAP3K1 (human) = MAP3K1 (human) (UniProt Q13233)
# MYLK (human) = MYLK (human) (UniProt Q15746)
# ZAP70 (human) = ZAP70 (human) (UniProt P43403)
# EIF2AK3 (human) = EIF2AK3 (human) (UniProt Q9NZJ5)
# DYRK3 (human) = DYRK3 (human) (UniProt O43781)
# BRSK2 (human), sequence (Q8IWQ3 whole entry, looked up): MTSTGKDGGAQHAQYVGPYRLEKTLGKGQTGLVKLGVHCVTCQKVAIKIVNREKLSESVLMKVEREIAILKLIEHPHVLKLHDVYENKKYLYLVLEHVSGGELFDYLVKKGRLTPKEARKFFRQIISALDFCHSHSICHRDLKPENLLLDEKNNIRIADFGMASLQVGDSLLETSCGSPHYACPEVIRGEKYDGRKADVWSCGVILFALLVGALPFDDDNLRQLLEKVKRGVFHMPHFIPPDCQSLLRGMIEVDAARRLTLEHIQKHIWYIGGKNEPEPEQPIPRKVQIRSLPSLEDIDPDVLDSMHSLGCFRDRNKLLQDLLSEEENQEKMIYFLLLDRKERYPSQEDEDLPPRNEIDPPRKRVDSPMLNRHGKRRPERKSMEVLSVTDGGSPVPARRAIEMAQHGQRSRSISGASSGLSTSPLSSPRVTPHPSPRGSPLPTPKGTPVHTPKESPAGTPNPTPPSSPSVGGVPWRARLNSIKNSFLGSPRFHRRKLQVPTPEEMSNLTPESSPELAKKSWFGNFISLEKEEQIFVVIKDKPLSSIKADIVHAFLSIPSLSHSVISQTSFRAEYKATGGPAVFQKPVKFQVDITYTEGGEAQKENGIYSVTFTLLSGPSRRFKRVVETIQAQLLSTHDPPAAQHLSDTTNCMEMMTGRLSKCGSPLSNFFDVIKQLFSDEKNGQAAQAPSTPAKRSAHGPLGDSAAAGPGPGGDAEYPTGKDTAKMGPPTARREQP
# YES1 (human), sequence (P07947 whole entry, looked up): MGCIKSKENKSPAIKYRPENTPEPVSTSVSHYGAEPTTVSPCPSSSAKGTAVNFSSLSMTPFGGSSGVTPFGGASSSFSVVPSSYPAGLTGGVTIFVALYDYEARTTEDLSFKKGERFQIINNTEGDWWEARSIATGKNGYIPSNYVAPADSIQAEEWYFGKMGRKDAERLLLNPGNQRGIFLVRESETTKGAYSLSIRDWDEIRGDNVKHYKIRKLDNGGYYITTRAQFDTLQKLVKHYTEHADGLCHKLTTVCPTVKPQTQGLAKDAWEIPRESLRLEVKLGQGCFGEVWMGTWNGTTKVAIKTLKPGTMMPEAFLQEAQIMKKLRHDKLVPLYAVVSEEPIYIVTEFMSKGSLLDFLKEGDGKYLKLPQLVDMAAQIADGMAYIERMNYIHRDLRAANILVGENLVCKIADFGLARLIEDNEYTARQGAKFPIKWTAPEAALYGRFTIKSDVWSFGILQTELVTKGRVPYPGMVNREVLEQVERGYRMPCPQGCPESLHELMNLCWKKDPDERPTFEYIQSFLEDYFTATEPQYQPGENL
# RPS6KA1 KD1 KD2 (human), sequence (Q15418 whole entry, looked up): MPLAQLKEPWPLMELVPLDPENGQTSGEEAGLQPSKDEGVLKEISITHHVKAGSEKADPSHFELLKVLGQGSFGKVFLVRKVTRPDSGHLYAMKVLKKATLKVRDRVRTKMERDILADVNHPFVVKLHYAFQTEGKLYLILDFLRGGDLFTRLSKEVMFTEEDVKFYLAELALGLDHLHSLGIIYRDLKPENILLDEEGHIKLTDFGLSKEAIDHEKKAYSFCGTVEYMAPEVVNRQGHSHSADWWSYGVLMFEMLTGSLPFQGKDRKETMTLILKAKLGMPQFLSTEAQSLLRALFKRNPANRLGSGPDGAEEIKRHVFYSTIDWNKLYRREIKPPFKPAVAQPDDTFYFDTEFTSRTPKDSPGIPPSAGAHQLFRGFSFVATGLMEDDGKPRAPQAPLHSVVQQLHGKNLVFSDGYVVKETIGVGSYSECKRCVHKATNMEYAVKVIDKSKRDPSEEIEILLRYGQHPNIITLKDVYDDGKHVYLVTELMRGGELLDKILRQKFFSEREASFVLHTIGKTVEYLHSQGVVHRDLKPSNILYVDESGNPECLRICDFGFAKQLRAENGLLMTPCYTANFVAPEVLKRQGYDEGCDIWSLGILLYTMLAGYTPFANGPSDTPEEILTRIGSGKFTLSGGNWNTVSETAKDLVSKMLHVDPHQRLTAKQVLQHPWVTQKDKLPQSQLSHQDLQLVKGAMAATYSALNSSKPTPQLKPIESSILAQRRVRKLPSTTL
# MYLK (human), sequence (Q15746 whole entry, looked up): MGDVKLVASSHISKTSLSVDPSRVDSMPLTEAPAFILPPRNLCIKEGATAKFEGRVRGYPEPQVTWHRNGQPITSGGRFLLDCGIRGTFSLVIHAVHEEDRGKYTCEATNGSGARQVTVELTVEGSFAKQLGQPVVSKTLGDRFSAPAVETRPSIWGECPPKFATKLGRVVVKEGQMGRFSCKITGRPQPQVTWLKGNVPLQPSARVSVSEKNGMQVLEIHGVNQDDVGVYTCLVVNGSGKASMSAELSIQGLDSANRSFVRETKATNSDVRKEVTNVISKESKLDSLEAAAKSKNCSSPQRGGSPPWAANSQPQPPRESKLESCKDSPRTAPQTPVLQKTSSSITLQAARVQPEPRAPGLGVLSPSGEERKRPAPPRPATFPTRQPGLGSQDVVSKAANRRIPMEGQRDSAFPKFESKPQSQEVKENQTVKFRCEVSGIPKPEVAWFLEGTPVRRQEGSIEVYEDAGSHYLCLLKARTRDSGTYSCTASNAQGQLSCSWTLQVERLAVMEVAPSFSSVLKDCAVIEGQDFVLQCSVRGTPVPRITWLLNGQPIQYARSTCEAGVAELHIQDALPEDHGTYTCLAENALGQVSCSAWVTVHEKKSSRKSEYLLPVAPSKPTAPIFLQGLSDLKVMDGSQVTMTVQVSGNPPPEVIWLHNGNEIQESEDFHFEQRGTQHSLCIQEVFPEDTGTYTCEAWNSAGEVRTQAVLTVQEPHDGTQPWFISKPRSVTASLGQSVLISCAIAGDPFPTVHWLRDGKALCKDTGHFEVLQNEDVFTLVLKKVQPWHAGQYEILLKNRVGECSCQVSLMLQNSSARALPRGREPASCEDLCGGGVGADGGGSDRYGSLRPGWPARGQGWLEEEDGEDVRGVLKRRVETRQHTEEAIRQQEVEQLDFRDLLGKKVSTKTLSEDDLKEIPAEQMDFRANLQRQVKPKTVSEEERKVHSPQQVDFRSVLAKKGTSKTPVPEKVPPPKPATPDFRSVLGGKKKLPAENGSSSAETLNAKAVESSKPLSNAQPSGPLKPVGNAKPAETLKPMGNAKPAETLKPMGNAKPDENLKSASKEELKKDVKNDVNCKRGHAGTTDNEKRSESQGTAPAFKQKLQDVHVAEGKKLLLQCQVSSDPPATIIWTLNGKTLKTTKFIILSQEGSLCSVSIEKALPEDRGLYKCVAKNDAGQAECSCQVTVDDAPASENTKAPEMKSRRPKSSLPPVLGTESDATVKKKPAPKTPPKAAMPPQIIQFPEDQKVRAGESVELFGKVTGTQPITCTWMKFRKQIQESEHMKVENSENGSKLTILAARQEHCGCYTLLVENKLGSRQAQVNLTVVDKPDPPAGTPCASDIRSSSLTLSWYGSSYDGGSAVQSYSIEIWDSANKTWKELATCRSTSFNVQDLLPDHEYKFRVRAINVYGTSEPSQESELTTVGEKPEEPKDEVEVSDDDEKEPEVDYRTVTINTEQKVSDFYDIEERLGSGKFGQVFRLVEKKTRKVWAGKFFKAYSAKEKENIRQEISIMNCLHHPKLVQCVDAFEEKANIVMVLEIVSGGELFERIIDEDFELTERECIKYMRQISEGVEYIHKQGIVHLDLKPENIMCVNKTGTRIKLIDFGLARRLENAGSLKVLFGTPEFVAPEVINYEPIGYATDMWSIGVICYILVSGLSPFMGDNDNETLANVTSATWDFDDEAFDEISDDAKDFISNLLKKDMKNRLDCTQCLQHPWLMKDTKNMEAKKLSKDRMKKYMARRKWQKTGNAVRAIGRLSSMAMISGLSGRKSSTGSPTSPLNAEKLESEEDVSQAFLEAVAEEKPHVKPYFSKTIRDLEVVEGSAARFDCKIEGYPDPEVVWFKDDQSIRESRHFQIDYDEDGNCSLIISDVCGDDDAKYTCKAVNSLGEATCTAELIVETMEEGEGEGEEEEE
# STK33 (human), sequence (Q9BYT3 whole entry, looked up): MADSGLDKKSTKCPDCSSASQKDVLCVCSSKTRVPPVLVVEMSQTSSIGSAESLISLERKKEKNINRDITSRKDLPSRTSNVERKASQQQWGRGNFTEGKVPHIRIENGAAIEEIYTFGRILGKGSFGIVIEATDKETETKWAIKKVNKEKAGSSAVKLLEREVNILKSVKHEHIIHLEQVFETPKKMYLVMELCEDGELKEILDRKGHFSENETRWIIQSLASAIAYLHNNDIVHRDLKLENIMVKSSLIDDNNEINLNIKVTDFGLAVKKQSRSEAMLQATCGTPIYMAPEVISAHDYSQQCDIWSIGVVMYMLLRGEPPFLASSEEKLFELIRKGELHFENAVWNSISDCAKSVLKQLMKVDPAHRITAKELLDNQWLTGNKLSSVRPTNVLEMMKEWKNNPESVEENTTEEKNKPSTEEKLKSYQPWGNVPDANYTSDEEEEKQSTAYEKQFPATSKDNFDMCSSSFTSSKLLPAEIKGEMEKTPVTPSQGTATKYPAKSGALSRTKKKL
# MAPK14 (human), sequence (Q16539 whole entry, looked up): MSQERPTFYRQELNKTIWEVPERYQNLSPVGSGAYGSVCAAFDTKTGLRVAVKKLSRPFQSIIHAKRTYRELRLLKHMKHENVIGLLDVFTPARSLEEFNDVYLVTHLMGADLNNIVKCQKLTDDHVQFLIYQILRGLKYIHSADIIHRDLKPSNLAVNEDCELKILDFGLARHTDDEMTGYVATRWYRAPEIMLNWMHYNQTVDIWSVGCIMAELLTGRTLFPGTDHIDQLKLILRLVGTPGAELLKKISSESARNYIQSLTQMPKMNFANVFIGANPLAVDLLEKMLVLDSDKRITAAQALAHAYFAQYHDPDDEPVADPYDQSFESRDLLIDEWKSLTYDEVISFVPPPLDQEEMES
compound,measurement,setting,value
CCN1CCN(Cc2ccc(NC(=O)c3ccc(C)c(Oc4ccnc5[nH]ccc45)c3)cc2C(F)(F)F)CC1,residual activity,IRAK1 (human); compound 0.1 µM,80.9%
same,residual activity,IRAK1 (human); compound 1.0 µM,72.2%
same,residual activity,IRAK1 (human); compound 10.0 µM,33.4%
same,residual activity,EPHB2 (human); compound 0.1 µM,88.5%
same,residual activity,EPHB2 (human); compound 1.0 µM,23.4%
same,residual activity,EPHB2 (human); compound 10.0 µM,3.11%
same,residual activity,YES1 (human); compound 0.1 µM,52.9%
same,residual activity,YES1 (human); compound 1.0 µM,9.77%
same,residual activity,YES1 (human); compound 10.0 µM,10.6%
same,residual activity,MAPK14 (human); compound 0.1 µM,41%
same,residual activity,MAPK14 (human); compound 1.0 µM,3.48%
same,residual activity,MAPK14 (human); compound 10.0 µM,2.61%
same,residual activity,PRKACA (human); compound 0.1 µM,100%
same,residual activity,PRKACA (human); compound 1.0 µM,93.4%
same,residual activity,PRKACA (human); compound 10.0 µM,76.2%
same,residual activity,MAPK15 (human); compound 0.1 µM,106%
same,residual activity,MAPK15 (human); compound 10.0 µM,44.6%
same,residual activity,PAK4 (human); compound 0.1 µM,109%
same,residual activity,PAK4 (human); compound 1.0 µM,99.4%
same,residual activity,PAK4 (human); compound 10.0 µM,77.8%
same,residual activity,MARK1 (human); compound 0.1 µM,114%
same,residual activity,MARK1 (human); compound 1.0 µM,97.2%
same,residual activity,MARK1 (human); compound 10.0 µM,103%
same,residual activity,ROCK2 (rat); compound 0.1 µM,91.7%
same,residual activity,ROCK2 (rat); compound 1.0 µM,71.2%
same,residual activity,ROCK2 (rat); compound 10.0 µM,25.5%
same,residual activity,INSRR (human); compound 0.1 µM,112%
same,residual activity,INSRR (human); compound 1.0 µM,91.3%
same,residual activity,INSRR (human); compound 10.0 µM,46.1%
same,residual activity,IKBKE (human); compound 0.1 µM,106%
same,residual activity,IKBKE (human); compound 1.0 µM,96.6%
same,residual activity,IKBKE (human); compound 10.0 µM,80.1%
same,residual activity,[1]; compound 0.1 µM,54%
same,residual activity,[1]; compound 10.0 µM,1.79%
same,residual activity,RPS6KA1 KD1 KD2 (human); compound 0.1 µM,107%
same,residual activity,RPS6KA1 KD1 KD2 (human); compound 1.0 µM,84.3%
same,residual activity,RPS6KA1 KD1 KD2 (human); compound 10.0 µM,37.9%
same,residual activity,STK33 (human); compound 0.1 µM,106%
same,residual activity,STK33 (human); compound 1.0 µM,96.7%
same,residual activity,STK33 (human); compound 10.0 µM,79.6%
same,residual activity,MAPK10 (human); compound 0.1 µM,116%
same,residual activity,MAPK10 (human); compound 1.0 µM,91.8%
same,residual activity,MAPK10 (human); compound 10.0 µM,31.8%
same,residual activity,BRSK2 (human); compound 0.1 µM,100%
same,residual activity,BRSK2 (human); compound 1.0 µM,94.8%
same,residual activity,BRSK2 (human); compound 10.0 µM,88.8%
same,residual activity,MAP3K1 (human); compound 0.1 µM,127%
same,residual activity,MAP3K1 (human); compound 1.0 µM,111%
same,residual activity,MAP3K1 (human); compound 10.0 µM,108%
same,residual activity,MYLK (human); compound 0.1 µM,109%
same,residual activity,MYLK (human); compound 1.0 µM,89.4%
same,residual activity,MYLK (human); compound 10.0 µM,76.7%
same,residual activity,ZAP70 (human); compound 0.1 µM,92.4%
same,residual activity,ZAP70 (human); compound 1.0 µM,89.5%
same,residual activity,ZAP70 (human); compound 10.0 µM,59.9%
same,residual activity,EIF2AK3 (human); compound 0.1 µM,98.8%
same,residual activity,EIF2AK3 (human); compound 1.0 µM,64.6%
same,residual activity,EIF2AK3 (human); compound 10.0 µM,21.4%
same,residual activity,DYRK3 (human); compound 0.1 µM,96.5%
same,residual activity,DYRK3 (human); compound 1.0 µM,86.3%
same,residual activity,DYRK3 (human); compound 10.0 µM,82%
